Assay results from PMC11357638 (Molecules, 2024).
Where a chain is given by its changes, count along the chain named. Where two headings read alike, the source gives them in different places.

Experiments:
TRPV3 = details: read-out: IC50, TRPV3 inhibition; cited from earlier work
[1] = biological target: T1, human TRPV3 (hTRPV3) channel (Homo sapiens, UniProt Q8NET8); experiment: Whole-cell patch-clamp of hTRPV3 currents in transfected HEK293T cells; format: cell-based
T1 construct: expressed in transfected cells; host or cells: HEK293T
T1 sequence (Q8NET8 1-790): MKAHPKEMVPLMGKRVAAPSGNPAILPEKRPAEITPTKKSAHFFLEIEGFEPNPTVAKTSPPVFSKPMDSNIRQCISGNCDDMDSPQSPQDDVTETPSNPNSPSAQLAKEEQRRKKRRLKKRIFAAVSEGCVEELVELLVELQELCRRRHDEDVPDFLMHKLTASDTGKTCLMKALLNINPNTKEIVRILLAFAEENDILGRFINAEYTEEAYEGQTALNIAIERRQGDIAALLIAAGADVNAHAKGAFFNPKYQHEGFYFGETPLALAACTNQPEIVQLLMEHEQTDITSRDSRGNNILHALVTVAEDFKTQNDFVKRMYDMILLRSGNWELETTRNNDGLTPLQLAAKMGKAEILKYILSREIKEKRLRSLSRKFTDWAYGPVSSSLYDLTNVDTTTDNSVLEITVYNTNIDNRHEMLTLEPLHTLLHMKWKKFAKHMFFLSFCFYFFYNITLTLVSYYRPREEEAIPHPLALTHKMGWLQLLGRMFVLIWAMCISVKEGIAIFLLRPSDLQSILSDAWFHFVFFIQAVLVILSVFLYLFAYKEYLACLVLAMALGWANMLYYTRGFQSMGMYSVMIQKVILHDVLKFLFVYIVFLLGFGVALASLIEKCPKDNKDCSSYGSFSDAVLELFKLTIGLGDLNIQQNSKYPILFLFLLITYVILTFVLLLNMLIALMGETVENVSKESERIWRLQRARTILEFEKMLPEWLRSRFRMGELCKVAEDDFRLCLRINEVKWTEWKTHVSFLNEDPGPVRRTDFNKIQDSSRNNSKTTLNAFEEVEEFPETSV

hTRPV3 T636A mutant = biological target: T2, hTRPV3 T636A mutant (Homo sapiens, UniProt Q8NET8, T636A); experiment: Whole-cell patch-clamp of hTRPV3 T636A mutant in HEK293T cells; format: cell-based
T2 construct: expressed in transfected cells; host or cells: HEK293T
T2 sequence (Q8NET8 1-790 T636A): T1 sequence (Q8NET8 1-790) with T636A

hTRPV3 I637A mutant = biological target: T3, hTRPV3 I637A mutant (Homo sapiens, UniProt Q8NET8, I637A); experiment: Whole-cell patch-clamp of hTRPV3 I637A mutant in HEK293T cells; format: cell-based; details: I637A hTRPV3, 50 μM 2-APB, +80 mV, Hill fit; read-out: IC50, inhibition of I637A mutant outward currents
T3 construct: expressed in transfected cells; host or cells: HEK293T
T3 sequence (Q8NET8 1-790 I637A): T1 sequence (Q8NET8 1-790) with I637A

hTRPV3 single channel = biological target: T4, hTRPV3 single channel (Homo sapiens, UniProt Q8NET8); experiment: Inside-out single-channel recording of hTRPV3; format: cell-based; details: −60 mV
T4 construct: expressed in transfected cells; host or cells: HEK293T
T4 sequence (Q8NET8 1-790): T1 sequence (Q8NET8 1-790)

[2] = agonist carvacrol at 300 μM alone

C[C@@H]1O[C@@H](O[C@@H]2[C@@H](O)[C@H](OCCc3ccc(O)c(O)c3)O[C@H](CO)[C@H]2OC(=O)/C=C/c2ccc(O)c(O)c2)[C@H](O)[C@H](O)[C@H]1O [verbascoside]
IC50 (TRPV3): 14.1 ± 3.3 µM

O=C(/C=C/c1ccc(O)c(O)c1)OCCc1ccccc1 [CAPE, caffeic acid phenethyl ester]
IC50 [1]: 277 ± 41.9 µM | IC50 (hTRPV3 T636A mutant): 506 ± 57.3 µM

COC(=O)/C=C/c1ccc(O)c(O)c1 [CAMC, caffeic acid methyl caffeate]
IC50 ([1]; WT hTRPV3 in HEK293T, whole-cell, activated by 50 μM 2-APB, at +80 mV, Hill fit, mean ± SD, read-out: IC50, inhibition of hTRPV3 currents): 410 ± 57.9 µM | IC50 (hTRPV3 T636A mutant; T636A hTRPV3, 50 μM 2-APB, +80 mV, Hill fit, read-out: IC50, inhibition of T636A mutant outward currents): 417 ± 45.1 µM | IC50 (hTRPV3 I637A mutant): 522 ± 43.8 µM

O=C(/C=C/c1ccc(O)c(O)c1)O[C@@H]1C[C@](O)(C(=O)O)C[C@@H](OC(=O)/C=C/c2ccc(O)c(O)c2)[C@H]1O [isochlorogenic acid A]
IC50 (TRPV3): 2.7 ± 1.3 µM

Cc1ccc(C(C)C)cc1O [carvacrol]
open frequency (Freq) (hTRPV3 single channel; [2]): 53.55 ± 7.27 Hz | single-channel conductance (hTRPV3 single channel; [2]): 179.4 ± 12.8 pS | single-channel open probability (POPEN) (hTRPV3 single channel; [2]): 0.56 ± 0.05

O=C(/C=C/c1ccc(O)c(O)c1)O[C@@H]1[C@@H](OC(=O)/C=C/c2ccc(O)c(O)c2)C[C@@](O)(C(=O)O)C[C@@H]1O [isochlorogenic acid B]
IC50 (TRPV3): 0.9 ± 0.3 µM

forsythiaside B
IC50 (TRPV3): 6.7 ± 0.7 µM

NCCOB(c1ccccc1)c1ccccc1 [2-APB, 2-aminoethoxydiphenylborate]
open frequency (Freq) (hTRPV3 single channel; agonist 2-APB 50 μM alone): 75.05 ± 6.63 Hz | single-channel conductance (hTRPV3 single channel; agonist 2-APB 50 μM alone): 161.6 ± 3.8 pS | single-channel open probability (POPEN) (hTRPV3 single channel; agonist 2-APB 50 μM alone): 0.72 ± 0.06
